Test results from patent publication US10781183B2, “Small molecule inducers of reactive oxygen species and inhibitors of mitochondrial activity” (The Regents of the University of Michigan, priority 2016, dated 2020).
Like-named read-outs stand apart in the source and are kept apart here.

Experiments:
[1] = test system: Panc-1 cells; experiment: MTT cytotoxicity assay, Panc-1; format: cell-based; settings: three independent experiments
Experimental: MiaPaCa-2, Panc-1 and BxPC-3 pancreatic cancer cell lines were obtained from the ATCC. Normal pancreatic cells HPDE and HPNE were kindly provided (Translational Oncology Program, University of […], Ann Arbor, Mich.). Gemcitabine resistant cell line MiaPaCa-2-GR (gemcitabine resistant) was kindly provided (Department of Pathology, Wayne State University, Detroit, Mich.). All cell lines were cultured as monolayer and maintained in RPMI1640 supplemented with 10% fetal bovine serum (FBS) in a humidified atmosphere with 5% CO2 at 37° C. MiaPaCa-2-GR culture was supplemented with 200 nM gemcitabine.
Cytotoxicity of compounds was evaluated with 3-(4,5-dimethylthiazol-2-yl)-2,5-diphenyltetrazolium bromide (MTT) assay. Cells were placed in 96-well plate at 3000-8000 cells/well. After overnight attachment, compounds were added to the wells at sequential dilutions (30 nM-10 μM for most cell lines). After 72 h treatment, MTT was added into the media to a final concentration of 300 μg/mL. Cells were incubated for 3 h at 37° C., and the insoluble formazan converted by viable cells were dissolved in 150 μL of DMSO. Absorbance at 570 nm was read by microplate reader (Molecular devices, Sunnyvale, Calif.), and inhibition of cell proliferation was calculated using the following formula: Inhibition of cell proliferation (%)=(1−ODtreatment/ODcontrol)×100%

[2] = Systemic toxicity in MiaPaCa-2 engrafted mice
Experimental: MiaPaCa-2 cells (2.0×10^6) in a 100 μL suspension of RPMI1640 was injected subcutaneously into dorsal flank of 6-week NOD/SCID mice. Tumor size was monitored twice a week through caliper measurement using the following equation: V=d^2×D/2, where d represents width and D represents length of the tumor. In study 1, mice were randomly grouped (n=5 per group) when average tumor size reached 65 mm^3. Daily treatment was given at five days on two days off cycles. QD325 was given at 5 mg/kg in 100 μL vehicle (5% DMSO, 60% Propylene glycol, 35% Saline) by intraperitoneal injection. […] Unpaired t test was performed for data analysis and p<0.05 was considered significant. […] Procedures for study 2 with gemcitabine treatment are detailed in supplemental information.
On necropsy, tumors, hearts, kidneys, livers, lungs, spleens and pancreases were collected, fixed in 10% neutral buffered formalin, embedded in paraffin, and sectioned. Sections ([…]) were stained with hematoxylin and eosin to facilitate histologic examination. For Ki67 expression level, immunohistochemistry staining was performed on sections with Ki67 antibody. Embedding, sectioning and staining of samples were performed by ULAM pathology core for animal research at the University of Michigan. Representative images were taken on Olympus IX83 microscope with 20× magnification.

[3] = test system: MiaPaCa-2 cells; experiment: Bru-seq analysis for nascent RNA synthesis; format: cell-based
Source text: A bromouridine labeled RNA sequencing (Bru-seq) technique was used to better characterize molecular mechanisms of these novel agents. Bru-seq is able to capture real-time synthesis of the nascent RNA, so as to provide information on global gene transcription without interference by RNA stability or biased gene selection (Paulsen et al., 2014, Paulsen et al., 2013). […] Profiling of all genes with >1.5-fold change in expression upon treatment of QD232 or QD325 identified NRF2-mediated oxidative stress response and unfolded protein response (UPR) as key pathways implicated in drug action (FIG. 8A).
Bru-seq analysis was performed as previously reported (Paulsen et al., 2014). Briefly, 4×10^6 MiaPaCa-2 cells were placed in 10 cm dishes on Day 1. On Day 2, cells were treated with DMSO, QD232 or QD325 for 4 h. Bromouridine was added into the media to label newly synthesized nascent RNA in the last 30 min of treatment to a final concentration of 2 mM. Cells were then collected in TRIZOL and total RNA was isolated. Bromouridine containing RNA population was further isolated and sent for sequencing. Sequencing reads were mapped to the HG19 reference genome. Pre-ranked gene lists were generated for each treatment through ranking genes by fold changes in gene synthesis levels compared with control, and analyzed with GSEA (Broad Institute, MA) (Subramanian et al., 2005, Mootha et al., 2003)

## O=C1C(Nc2ccc(-c3ccccc3)cc2)=CC(=O)c2ncncc21 [QD325, 6-([1,1′-biphenyl]-4-ylamino)quinazoline-5,8-dione]
[1]; Homo sapiens, PANC-1, Table 2, Mean ± SD, read-out: IC 50 Panc-1
  IC50: 400 ± 100 nM
[1]; Table 1, 72 h, Mean ± SD
  IC50: < 1000 nM
[2]; QD325 5 mg/kg (FIG. 12B)
  body weight of engrafted mice: not affected
[2]; QD325 5-20 mg/kg (FIG. 13B)
  body weight of engrafted mice: not affected
[2]; doses as high as 20 mg/kg
  systemic toxicity at higher doses: no systemic toxicity was observed
[2]; liver, kidney, heart, lung, spleen and pancreas, QD325 5 mg/kg (FIG. 12C)
  histopathology of H&E stained organ sections: did not reveal major histopathological changes
[3]; 4 h, QD232 3 times IC50, QD325 5 times IC50 (FIG. 4)
  apoptosis signaling (IPA analysis): significant activation of apoptosis signaling
[3]; 4 h, QD232 at 6.9 μM, QD325 at 5.0 μM (FIG. 10A)
  nascent RNA synthesis of mitochondrial genome: inhibited
[3]; 4 h treatment, dose dependently (FIG. 8C)
  transcription of DDIT3 and HSPA5: significantly increased
[3]; 4 h treatment, QD232 at 1, 2 or 3 times IC50, QD325 at 1, 2 or 5 times IC50 (FIG. 8B)
  synthesis of NQO1 and HMOX1 RNAs: dose-dependently upregulated
